The values below come from PMC6713262 (Cell, 2019).

Like-named read-outs stand apart in the source and are kept apart here.

The test addresses crystallized CB2 construct (CB2-T4L) (Homo sapiens, UniProt P34972, D228Y/G225M/G233N/G304E/G78L/H226L/INS221[…]/INS227[…]/INS235[…]/M234R/R229N/R242E/S224R/T127A/T153L/V231T). Put plainly: Radioligand competition binding with [3H]-CP55,940, crystallized CB2 construct. (Displacement assays read how much labelled ligand stays bound in the presence of the test substance.)

For `Cc1c(C(=O)NC23CC4CC(CC(C4)C2)C3)nn(CCCCCO)c1-c1ccccc1` [AM10257, 1-(5-Hydroxypentyl)-4-methyl-5-phenyl-N-tricyclo[3.3.1.1^3,7]dec-1-yl-1H-pyrazole-3-carboxamide], the “Effect of construct modifications on binding affinity of CB2” value (T4L fusion, five mutations, N/C-terminal truncation, Figure S1F) is listed as “little effect”.

As for SR144528 [reference compound], the “Effect of construct modifications on binding affinity of CB2” value is “little effect”.
